Reference: patent publication US20220249441A1, “Homodimeric Tobramycin Adjuvant Repurposes Novobiocin as an Effective Antibacterial Agent Against Gram-Negative Bacteria” (priority 2019, published 2022)

Columns and labels:
[1] = system: P. aeruginosa PAO1 and efflux deficient mutants, MDR/XDR isolates; assay: microbe, parasite or virus in culture; format: cell-based, Pseudomonas aeruginosa
Method: Antimicrobial Susceptibility Assay. The in vitro antimicrobial activity of all compounds/antibiotics against a panel of bacteria was evaluated by microbroth dilution method in accordance with the Clinical and Laboratory Standards Institute (CLSI) guidelines (using ATCC strains as quality control strains) (54). […] The broth with or without bacterial cells was used as positive or negative control, respectively.

P. aeruginosa = assay: Checkerboard assay (antibiotic + adjuvant combination MIC); format: cell-based, Pseudomonas aeruginosa; settings: compound at 8 μM
[2] = system: panel of Gram-positive and Gram-negative bacteria; assay: Antimicrobial susceptibility assay against a panel of bacteria; format: cell-based; settings: some isolates
Method: Antimicrobial Susceptibility Assay. The in vitro antimicrobial activity of all compounds/antibiotics against a panel of bacteria was evaluated by microbroth dilution method in accordance with the Clinical and Laboratory Standards Institute (CLSI) guidelines (using ATCC strains as quality control strains) (54). Overnight grown bacterial cultures were diluted in saline to achieve a 0.5 McFarland turbidity, followed by 1:50 dilution in Mueller-Hinton broth (MHB) for inoculation to a final concentration of approximately 5×10^5 CFU/mL. […] The lowest concentration that prevented the visible growth of bacteria was defined as the MIC for each antimicrobial agent. The broth with or without bacterial cells was used as positive or negative control, respectively.

## Cl.Cl.Cl.Cl.Cl.Cl.NC[C@H]1O[C@H](O[C@H]2[C@H](OCCCCCCCCCCCCN3CCN(c4cc5c(cc4F)c(=O)c(C(=O)O)cn5C4CC4)CC3)[C@@H](O[C@H]3O[C@H](CO)[C@@H](O)[C@H](N)[C@H]3O)[C@H](N)C[C@@H]2N)[C@H](N)C[C@@H]1O [Compound 21, Tobramycin-ciprofloxacin]
[1]; PA0750 (efflux-deficient)
  MIC: 2 µg/mL
[1]; PAO1 (wild-type)
  MIC: 32 µg/mL
[1]; PAO200 (first column so headed)
  MIC: 4 µg/mL
[1]; PAO200 (second column so headed)
  MIC: 2 µg/mL
P. aeruginosa; P. aeruginosa PAO1
  MIC of Aztreonam + compound: 0.25 µg/mL
  MIC of Ceftazidime + compound: 0.25 µg/mL
  MIC of Imipenem + compound: 0.5 µg/mL
  MIC of Piperacillin + compound: 2 µg/mL
P. aeruginosa; PA 259-96918
  MIC of ATM in the presence of compound: 8 µg/mL
  MIC of CAZ in the presence of compound: 64 µg/mL
  MIC of IPM in the presence of compound: 16 µg/mL
P. aeruginosa; PA 260-97103
  MIC of ATM in the presence of compound: 4 µg/mL
  MIC of CAZ in the presence of compound: 4 µg/mL
  MIC of IPM in the presence of compound: 2 µg/mL
P. aeruginosa; PA 262-101856
  MIC of ATM in the presence of compound: 4 µg/mL
  MIC of CAZ in the presence of compound: 4 µg/mL
  MIC of IPM in the presence of compound: 4 µg/mL
P. aeruginosa; PA 264-104354
  MIC of ATM in the presence of compound: 8 µg/mL
  MIC of CAZ in the presence of compound: 16 µg/mL
  MIC of IPM in the presence of compound: 4 µg/mL
P. aeruginosa; PA 86052
  MIC of ATM in the presence of compound: 8 µg/mL
  MIC of CAZ in the presence of compound: 32 µg/mL
  MIC of IPM in the presence of compound: 8 µg/mL
P. aeruginosa; PA 88949
  MIC of ATM in the presence of compound: 8 µg/mL
  MIC of CAZ in the presence of compound: 32 µg/mL
  MIC of IPM in the presence of compound: 8 µg/mL
P. aeruginosa; PA 91433
  MIC of ATM in the presence of compound: 4 µg/mL
  MIC of CAZ in the presence of compound: 2 µg/mL
  MIC of IPM in the presence of compound: 2 µg/mL
P. aeruginosa; PA 100036
  MIC of ATM in the presence of compound: 4 µg/mL
  MIC of CAZ in the presence of compound: 2 µg/mL
  MIC of IPM in the presence of compound: 2 µg/mL
P. aeruginosa; PA 101243
  MIC of ATM in the presence of compound: 4 µg/mL
  MIC of CAZ in the presence of compound: 8 µg/mL
  MIC of IPM in the presence of compound: 2 µg/mL
P. aeruginosa; PA 101885
  MIC of ATM in the presence of compound: 1 µg/mL
  MIC of CAZ in the presence of compound: 1 µg/mL
  MIC of IPM in the presence of compound: 2 µg/mL
P. aeruginosa; PA 107092
  MIC of ATM in the presence of compound: 8 µg/mL
  MIC of CAZ in the presence of compound: 16 µg/mL
  MIC of IPM in the presence of compound: 8 µg/mL
P. aeruginosa; PA 108590
  MIC of ATM in the presence of compound: 0.5 µg/mL
  MIC of CAZ in the presence of compound: 0.5 µg/mL
  MIC of IPM in the presence of compound: 0.25 µg/mL
P. aeruginosa; PA 109084
  MIC of ATM in the presence of compound: 16 µg/mL
  MIC of CAZ in the presence of compound: 16 µg/mL
  MIC of IPM in the presence of compound: 8 µg/mL
P. aeruginosa; PA 114228
  MIC of ATM in the presence of compound: 2 µg/mL
  MIC of CAZ in the presence of compound: 0.5 µg/mL
  MIC of IPM in the presence of compound: 2 µg/mL
P. aeruginosa; PA O200 (efflux-deficient)
  MIC of ATM in the presence of compound: 0.03 µg/mL
  MIC of CAZ in the presence of compound: 0.06 µg/mL
  MIC of IPM in the presence of compound: 1 µg/mL
P. aeruginosa; PA O750 (efflux-deficient)
  MIC of ATM in the presence of compound: 0.06 µg/mL
  MIC of CAZ in the presence of compound: 0.03 µg/mL
  MIC of IPM in the presence of compound: 0.5 µg/mL
P. aeruginosa; PAO1
  MIC of ATM in the presence of compound: 0.25 µg/mL
  MIC of CAZ in the presence of compound: 0.25 µg/mL
  MIC of IPM in the presence of compound: 0.5 µg/mL
P. aeruginosa
  resistant isolates in which CLSI breakpoint was attained for aztreonam: twelve out of thirteen
  resistant isolates in which CLSI breakpoint was attained for ceftazidime: four out of eleven
  resistant isolates in which CLSI breakpoint was attained for imipenem: ten out of seventeen
[2]
  intrinsic antimicrobial activity: some modest residual activity
